Measured values taken from patent US9242933B2 (AbbVie Deutschland GmbH & Co. KG, priority 2007, dated 2016).

Biological target: T1, human mGlu2 receptor (Homo sapiens, UniProt Q14416)
T1 construct: expressed in transfected cells; host or cells: HEK293
Test: FLIPR intracellular Ca2+ assay, potentiation of glutamate response in HEK293 clone expressing mGlu2 receptor, rGLAST and Galpha16
Type: cell-based
Conditions: 1 μM glutamate added ten minutes after test compound, HEK293 cells with human mGlu2, rGLAST, Galpha16, read-out: EC50 values of potentiation effect to glutamate
Procedure, shortened: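 HEK293 cells stably expressing human mGlu2, rat GLAST and Gα16 were loaded with 2 µM Fluo-4 AM and intracellular Ca2+ read by FLIPR. Compound added alone (agonism), then with submaximal glutamate (e.g. 1 µM; potentiation). Background-subtracted peaks normalized to 100 µM glutamate response; EC50 from four-parameter fit.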

T1 sequence (Q14416 19-872): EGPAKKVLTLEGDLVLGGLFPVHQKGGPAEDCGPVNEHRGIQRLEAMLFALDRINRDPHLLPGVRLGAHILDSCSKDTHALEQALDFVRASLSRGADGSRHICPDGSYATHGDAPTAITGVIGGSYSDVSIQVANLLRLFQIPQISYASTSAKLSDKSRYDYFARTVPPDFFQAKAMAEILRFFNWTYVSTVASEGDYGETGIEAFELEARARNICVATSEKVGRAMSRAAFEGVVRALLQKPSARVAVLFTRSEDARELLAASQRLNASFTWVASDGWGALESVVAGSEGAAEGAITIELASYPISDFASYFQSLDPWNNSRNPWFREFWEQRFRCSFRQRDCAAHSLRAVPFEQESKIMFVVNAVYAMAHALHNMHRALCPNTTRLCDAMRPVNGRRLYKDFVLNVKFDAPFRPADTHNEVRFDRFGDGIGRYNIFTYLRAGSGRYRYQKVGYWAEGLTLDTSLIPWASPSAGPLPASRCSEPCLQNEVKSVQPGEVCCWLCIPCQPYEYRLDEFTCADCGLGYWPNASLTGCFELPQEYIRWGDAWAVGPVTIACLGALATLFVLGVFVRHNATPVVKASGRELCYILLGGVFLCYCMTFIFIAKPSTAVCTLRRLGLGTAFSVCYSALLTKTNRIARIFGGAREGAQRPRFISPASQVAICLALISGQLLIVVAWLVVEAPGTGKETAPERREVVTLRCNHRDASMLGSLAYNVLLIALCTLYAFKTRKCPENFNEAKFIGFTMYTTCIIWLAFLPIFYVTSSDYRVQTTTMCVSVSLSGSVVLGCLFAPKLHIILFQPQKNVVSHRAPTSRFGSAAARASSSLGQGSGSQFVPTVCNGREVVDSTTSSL

EC50 [nM]	Compound
1000 to 10000	CCCC(=O)c1ccc(NCc2cccnc2OC(C)C)cc1 [Example 310, 1-{4-[(2-Isopropoxy-pyridin-3-ylmethyl)-amino]-phenyl}-butan-1-one]
< 1000	O=C1c2ccc(OCc3c[nH]nc3-c3cccc(C(F)(F)F)c3)cc2CN1CCC(F)(F)F [Example 538, 5-[3-(3-Trifluoromethyl-phenyl)-1H-pyrazol-4-ylmethoxy]-2-(3,3,3-trifluoro-propyl)-2,3-dihydro-isoindol-1-one]
1000 to 10000	CCCC(=O)c1ccc(NCc2ccc(N3CCCCC3)nc2)cc1 [Example 312, 1-{4-[(3,4,5,6-Tetrahydro-2H-[1,2′]bipyridinyl-5′-ylmethyl)-amino]-phenyl}-butan-1-one]
< 1000	CCN1Cc2cc(OCc3c[nH]nc3-c3cccc(F)c3)ccc2C1=O [Example 560, 2-Ethyl-5-[3-(3-fluorophenyl)-1H-pyrazol-4-ylmethoxy]-2,3-dihydro-isoindol-1-one]
1000 to 10000	CN1CCC(Oc2ccc(NCc3c[nH]nc3C(C)(C)C)cc2)CC1 [Example 284, (3-tert-Butyl-1H-pyrazol-4-ylmethyl)-[4-(1-methyl-piperidin-4-yloxy)-phenyl]-amine]
< 1000	CCCC(=O)c1ccc(NCc2c[nH]nc2-c2ccc(Cl)cc2)cc1 [Example 217, 1-(4-{[3-(4-Chloro-phenyl)-1H-pyrazol-4-ylmethyl]-amino}-phenyl)-butan-1-one]
< 1000	CCCC(=O)c1ccc(NCc2c[nH]nc2-c2cccc(F)c2)cc1 [Example 511, 1-(4-{[3-(3-Fluorophenyl)-1H-pyrazol-4-ylmethyl]-amino}-phenyl)-butan-1-one]
1000 to 10000	CC(=O)c1ccc(OCc2c[nH]nc2-c2ccc(C(F)(F)F)cc2)cc1F [Example 485, 1-{2-Fluoro-4-[3-(4-trifluoromethyl-phenyl)-1H-pyrazol-4-ylmethoxy]-phenyl}-ethanone]
1000 to 10000	CCCC(=O)c1ccc(NCc2sc(Cl)nc2Cl)cc1 [Example 250, 1-{4-[(2,4-Dichloro-thiazol-5-ylmethyl)-amino]-phenyl}-butan-1-one]
1000 to 10000	CCCC(=O)c1ccc(NCc2ccc(OC3CCCC3)nc2)cc1 [Example 313, 1-{4-[(6-Cyclopentyloxy-pyridin-3-ylmethyl)-amino]-phenyl}-butan-1-one]
< 1000	CCN1Cc2cc(OCc3c[nH]nc3-c3cccc(C(F)(F)F)c3)ccc2C1=O [Example 558, 2-Ethyl-5-[3-(3-trifluoromethyl-phenyl)-1H-pyrazol-4-ylmethoxy]-2,3-dihydro-isoindol-1-one]
< 1000	CCCN1Cc2cc(OCc3c[nH]nc3-c3ccc(C(F)(F)F)cc3)ccc2C1=O [Example 531, 2-Propyl-5-[3-(4-trifluoromethyl-phenyl)-1H-pyrazol-4-ylmethoxy]-2,3-dihydro-isoindol-1-one]
1000 to 10000	CCCOc1ccc(NCc2c[nH]nc2C(C)(C)C)cc1 [Example 273, (3-tert-Butyl-1H-pyrazol-4-ylmethyl)-(4-propoxy-phenyl)-amine]
1000 to 10000	CC(C)(C)c1n[nH]cc1CNc1ccc2c(c1)OCO2 [Example 117, Benzo[1,3]dioxol-5-yl-(3-tert-butyl-1H-pyrazol-4-ylmethyl)-amine]
1000 to 10000	CCCC(=O)c1ccc(NCc2c(C)nn(C)c2C)cc1 [Example 211, 1-{4-[(1,3,5-Trimethyl-1H-pyrazol-4-ylmethyl)-amino]-phenyl}-butan-1-one]
1000 to 10000	CCCC(=O)c1ccc(NCc2c[nH]nc2CC)cc1 [Example 478, 1-{4-[(3-Ethyl-1H-pyrazol-4-ylmethyl)-amino]-phenyl}-butan-1-one]
1000 to 10000	CCCC(=O)c1cccc(NCc2n[nH]cc2-c2ccc(CC)cc2)c1 [Example 515, 1-(3-{[4-(4-Ethyl-phenyl)-1H-pyrazol-3-ylmethyl]-amino}-phenyl)-butan-1-one]
1000 to 10000	CCCC(=O)c1cccc(NCc2c[nH]nc2-c2ccc(C(F)(F)F)cc2)c1 [Example 503, 1-(3-{[3-(4-Trifluoromethyl-phenyl)-1H-pyrazol-4-ylmethyl]-amino}-phenyl)-butan-1-one]
1000 to 10000	CCCC(=O)c1ccc(NCc2c[nH]nc2-c2ccc(Cl)cc2)cc1OC(CC)CC [Example 437, 1-[4-{[3-(4-Chloro-phenyl)-1H-pyrazol-4-ylmethyl]-amino}-2-(1-ethyl-propoxy)-phenyl]-butan-1-one]
< 1000	CCCC(=O)c1ccc(NCc2cn(C)nc2-c2ccc(C(F)(F)F)cc2)cc1 [Example 374, 1-(4-{[1-Methyl-3-(4-trifluoromethyl-phenyl)-1H-pyrazol-4-ylmethyl]-amino}-phenyl)-butan-1-one]
1000 to 10000	CCCC(=O)c1ccc(NCc2c(-c3ccccc3)noc2C)cc1 [Example 43, 1-{4-[(5-Methyl-3-phenylisoxazol-4-ylmethyl)amino]phenyl}butan-1-one]

EC50 [nM]	Compound
1000 to 10000	CCCC(=O)c1ccc(NCc2c[nH]cc2-c2ccccc2)cc1 [Example 523, 1-{4-[(4-Phenyl-1H-pyrrol-3-ylmethyl)-amino]-phenyl}-butan-1-one]
< 1000	CCCC(=O)c1ccc(OCc2c[nH]nc2-c2ccc(C(F)(F)F)cc2)cc1 [Example 494, 1-{4-[3-(4-Trifluoromethyl-phenyl)-1H-pyrazol-4-ylmethoxy]-phenyl}-butan-1-one]
1000 to 10000	CCCC(=O)c1ccc(NCc2n[nH]cc2Br)cc1 [Example 522]
1000 to 10000	CCCC(=O)c1ccc(NCc2n[nH]c3ccccc23)cc1 [Example 215, 1-{4-[(1H-Indazol-3-ylmethyl)-amino]-phenyl}-butan-1-one]
1000 to 10000	CC(C)(C)c1n[nH]cc1CNc1ccc(OC(F)(F)Cl)cc1 [Example 281, (3-tert-Butyl-1H-pyrazol-4-ylmethyl)-[4-(chloro-difluoro-methoxy)-phenyl]-amine]
< 1000	CCN1Cc2cc(OCc3c[nH]nc3-c3ccccc3)ccc2C1=O [Example 563, 2-Ethyl-5-(3-phenyl-1H-pyrazol-4-ylmethoxy)-2,3-dihydro-isoindol-1-one]
< 1000	O=C1c2ccc(OCc3c[nH]nc3-c3ccc(Cl)cc3)cc2CN1CCC(F)(F)F [Example 539, 5-[3-(4-Chloro-phenyl)-1H-pyrazol-4-ylmethoxy]-2-(3,3,3-trifluoro-propyl)-2,3-dihydro-isoindol-1-one]
1000 to 10000	O=C(c1ccccc1)c1ccc(NCc2c[nH]nc2-c2ccc(C(F)(F)F)cc2)cc1 [Example 504, Phenyl-(4-{[3-(4-trifluoromethyl-phenyl)-1H-pyrazol-4-ylmethyl]-amino}-phenyl)-methanone]
< 1000	O=C1c2ccc(OCc3c[nH]nc3-c3cccc(C(F)(F)F)c3)cc2CN1CC(F)(F)F [Example 569, 2-(2,2,2-Trifluoro-ethyl)-5-[3-(3-trifluoromethyl-phenyl)-1H-pyrazol-4-ylmethoxy]-2,3-dihydro-isoindol-1-one]
< 1000	CCCC(=O)c1ccc(NCc2c[nH]nc2-c2ccc(OC)c(OC)c2)cc1 [Example 218, 1-(4-{[3-(3,4-Dimethoxy-phenyl)-1H-pyrazol-4-ylmethyl]-amino}-phenyl)-butan-1-one]
1000 to 10000	CCCC(=O)c1ccc(NCc2ccc(-c3ccc(S(N)(=O)=O)cc3)o2)cc1 [Example 35, 4-{5-[(4-Butyrylphenylamino)methyl]furan-2-yl}benzenesulfonamide]
< 1000	CCCCN1Cc2cc(OCc3c[nH]nc3-c3ccc(Cl)c(Cl)c3)ccc2C1=O [Example 547, 2-Butyl-5-[3-(3,4-dichloro-phenyl)-1H-pyrazol-4-ylmethoxy]-2,3-dihydro-isoindol-1-one]
1000 to 10000	CCCC(=O)c1ccc(NCc2c[nH]nc2-c2cccc(C(F)(F)F)c2)cc1 [Example 416, 1-(4-{[3-(3-Trifluoromethyl-phenyl)-1H-pyrazol-4-ylmethyl]-amino}-phenyl)-butan-1-one]
< 1000	CCCN1Cc2cc(NCc3c[nH]nc3-c3ccc(Cl)cc3)ccc2C1=O [Example 576, 5-{[3-(4-Chloro-phenyl)-1H-pyrazol-4-ylmethyl]-amino}-2-propyl-2,3-dihydro-isoindol-1-one]
1000 to 10000	CCCC(=O)c1ccc(NCc2cn[nH]c2)cc1 [Example 68, 1-{4-[(1H-Pyrazol-4-ylmethyl)amino]phenyl}butan-1-one]
< 1000	O=C1c2ccc(OCc3c[nH]nc3-c3ccccc3)cc2CN1CC(F)F [Example 567, 2-(2,2-Difluoro-ethyl)-5-(3-phenyl-1H-pyrazol-4-ylmethoxy)-2,3-dihydro-isoindol-1-one]
< 1000	CCCC(=O)c1cccc(N(Cc2cccnc2)S(=O)(=O)CC(F)(F)F)c1 [Example 390, 2,2,2-Trifluoro-ethanesulfonic acid (3-butyryl-phenyl)-pyridin-3-ylmethyl-amide]
< 1000	CCCCN1Cc2cc(OCc3c[nH]nc3-c3ccc(F)cc3)ccc2C1=O [Example 548, 2-Butyl-5-[3-(4-fluorophenyl)-1H-pyrazol-4-ylmethoxy]-2,3-dihydro-isoindol-1-one]
< 1000	CCCC(=O)c1ccc(NCc2cnn(C)c2-c2ccccc2)cc1 [Example 73]
< 1000	CCCC(=O)c1ccc(OCc2c[nH]nc2-c2ccc(Cl)cc2)cc1 [Example 496, 1-{4-[3-(4-Chloro-phenyl)-1H-pyrazol-4-ylmethoxy]-phenyl}-butan-1-one]
1000 to 10000	CCCC(=O)c1ccc(NCc2cnccc2-c2cccc(Br)c2)cc1 [Example 37, 1-(4-{[4-(3-Bromophenyl)pyridin-3-ylmethyl]amino}phenyl)butan-1-one]

Compound	EC50 [nM]
CCCC(C)Oc1cccc(NCc2c[nH]nc2-c2ccc(C(F)(F)F)cc2)c1 (stereo not shown) [Example 379, [3-(1-Methyl-butoxy)-phenyl]-[3-(4-trifluoromethyl-phenyl)-1H-pyrazol-4-ylmethyl]-amine]	1000 to 10000
